Like-named read-outs stand apart in the source and are kept apart here.
Legend:
Assay type in all cases: in vivo
blood-sugar = test: Blood-sugar lowering activity in starved female rats after oral administration; details: for Blood-sugar lowering activity, percent as compared with the controls / change in vivo at 1 mg/kg: 1 mg/kg orally; for change in vivo at 1 mg/kg / change in vivo at 5 mg/kg / change in vivo at 10 mg/kg: Rattus norvegicus, po, read-out: Blood-sugar lowering activity, percent as compared with the controls; for change in vivo at 5 mg/kg: 5 mg/kg orally; for change in vivo at 10 mg/kg: 10 mg/kg orally (footnote *)
Procedure: The blood-sugar lowering activity of the test compounds was determined in home-bred female rats with weights of from 180 to 220 grams. Twenty-four hours before starting the test the animals were starved. Before the test the compounds were suspended in 1.5% methyl cellulose and administered to the animals by means of an esophageal tube.
Blood was taken from the retroorbital plexus vein before administration of the test compounds as well as each of 1, 2, 3, and 4 hours after administration. Fifty microliters of each sample were deproteinized with 0.5 ml of 0.33N perchloric acid and centrifuged. The glucose content was determined in the supernatant according to the Hexokinase method by means of an analysis photometer. The statistical evalulation was performed with the t-test according to Student with p=0.05.

[1] = Acute toxicity in female and male mice after oral administration of a single dose; details: mouse, in vivo, observation time 14 days, read-out: Peroral Toxicity
Procedure: (§1) The acute toxicity was determined in home-bred female and male mice having body weights of from 20 to 26 gm after oral administration (suspension in a 1% methyl cellulose solution) of a single dose. Observation time: 14 days.

mice = test: as above; details: observation time 14 days
Procedure: as §1

[2] = 3 hours, n.s. = not statistically significant
[3] = 1 hour, n.s. = not statistically significant
[4] = 2 hours, n.s. = not statistically significant
[5] = 4 hours, n.s. = not statistically significant

| SMILES | Blood-sugar lowering activity, percent as compared with the controls (blood-sugar; [2]) | change in vivo at 1 mg/kg (blood-sugar; [3]) [%] | change in vivo at 1 mg/kg (blood-sugar; [4]) [%] | change in vivo at 1 mg/kg (blood-sugar; [5]) [%] | change in vivo at 5 mg/kg (blood-sugar; [3]) [%] | change in vivo at 5 mg/kg (blood-sugar; [4]) [%] | change in vivo at 5 mg/kg (blood-sugar; [2]) [%] | change in vivo at 5 mg/kg (blood-sugar; [5]) [%] | LD50 at 336 h [1] [mg/kg] | animals died (mice) | change in vivo at 1 mg/kg (blood-sugar; [2]) [%] | Blood-sugar lowering activity, percent as compared with the controls (blood-sugar; [5]) | change in vivo at 10 mg/kg (blood-sugar; 1 hour) [%] | change in vivo at 10 mg/kg (blood-sugar; 2 hours) [%] | change in vivo at 10 mg/kg (blood-sugar; [2]) [%] | change in vivo at 10 mg/kg (blood-sugar; [5]) [%] |
| --- | --- | --- | --- | --- | --- | --- | --- | --- | --- | --- | --- | --- | --- | --- | --- | --- |
| CC(NC(=O)Cc1ccc(C(=O)O)cc1)c1ccccc1N1CCCCC1 (racemic) [AT, (±)-4-[(1-(2-Piperidino-phenyl)-1-ethyl)-aminocarbonylmethyl]-benzoicacid] | n.s. | -34 | -26 | -11 | -45 | -45 | -36 | -32 | > 2000 | 1 out of 10 | – | – | – | – | – | – |
| O=C(Cc1ccc(C(=O)O)cc1)NC(c1ccccc1)c1ccccc1N1CCCCC1 (racemic) [AV, (±)-4-[(2-Piperidino-benzhydryl)-aminocarbonylmethyl]-benzoic acid] | – | -41 | -38 | -24 | -44 | -38 | -41 | -37 | > 2000 | 0 out of 10 | -26 | – | – | – | – | – |
| CCCC(NC(=O)Cc1ccc(C=CC(=O)O)cc1)c1ccccc1N1CCCCC1 (stereo not shown) [T, 4=[(1-(2-Piperidino-phenyl)-1-butyl)-aminocarbonylmethyl]-cinnamic acid] | – | -42 | -42 | -32 | -48 | -46 | -42 | -40 | – | – | -40 | – | – | – | – | – |
| CCCC(NC(=O)Cc1ccc(C(=O)OCC(O)CO)cc1)c1ccccc1N1CCCCC1 (stereo not shown) [U, 4-[(1-(2-Piperidino-phenyl)-1-butyl)-aminocarbonylmethyl]-benzoic acid 2,3-dihydroxy-propyl ester] | – | -39 | -35 | -24 | -43 | -43 | -49 | -45 | – | – | -29 | – | – | – | – | – |
| CCCC(NC(=O)Cc1ccc(C(=O)O)cc1)c1ccc(F)cc1N1CCCCC1 (stereo not shown) [V, 4-[(1-(4-Fluoro-2-piperidino-phenyl)-1-butyl)-aminocarbonylmethyl]-benzoic acid] | – | -37 | -23 | -18 | -45 | -41 | -46 | -40 | – | – | -30 | – | – | – | – | – |
| CCCC(NC(=O)Cc1ccc(C(=O)O)cc1)c1ccc(OC)cc1N1CCCCC1 (stereo not shown) [W, 4-[(1-(4-Methoxy-2-piperidino-phenyl)-1-butyl)-aminocarbonylmethyl]-benzoic acid] | – | -36 | -25 | – | -46 | -45 | -39 | -37 | – | – | -16 | n.s. | – | – | – | – |
| C=C(NC(=O)Cc1ccc(C(=O)O)cc1)c1ccccc1N1CCCCCCCC1 [X, 4-[(1-(2-Octahydroazonino-phenyl)-1-ethenyl)-aminocarbonylmethyl]-benzoicacid] | – | – | – | – | – | – | – | – | – | – | – | – | -34 | -21 | -17 | -14 |
| CC(NC(=O)Cc1ccc(C(=O)O)cc1)c1cccc(Cl)c1N1CCCCC1 (stereo not shown) [Y, 4-[(1-(3-Chloro-2-piperidino-phenyl)-1-ethyl)-aminocarbonylmethyl]-benzoic acid] | – | – | – | – | -32 | -24 | -16 | -18 | – | – | – | – | – | – | – | – |
| Cc1cccc(C(C)NC(=O)Cc2ccc(C(=O)O)cc2)c1N1CCCCC1 (stereo not shown) [Z, 4-[(1-(3-Methyl-2-piperidino-phenyl)-1-ethyl)-aminocarbonylmethyl]-benzoic acid] | – | – | – | – | -22 | -33 | -28 | -26 | – | – | – | – | – | – | – | – |
